{"source": "ChEMBL document CHEMBL5346920", "about": "“Development of the \"hidden\" multi-target-directed ligands by AChE/BuChE for the treatment of Alzheimer's disease” (Eur J Med Chem, 2023)", "key": {"[1]": {"assay": "Acute toxicity in zebra fish assessed as maximum non-lethal dose", "set-up": "species or system Danio rerio", "conditions": "zebrafish"}, "BV-2 [2]": {"tested_on": "BV-2", "assay": "Cytotoxicity against mouse BV-2 cells assessed as reduction in cell viability at 10 uM by CCK8 assay", "format": "toxicity, cell-based", "conditions": "bv-2, 10 µM"}, "Cholinesterase [3]": {"biological_target": "T1, Cholinesterase (Equus caballus, UniProt P81908)", "T1 sequence (P81908 whole entry)": "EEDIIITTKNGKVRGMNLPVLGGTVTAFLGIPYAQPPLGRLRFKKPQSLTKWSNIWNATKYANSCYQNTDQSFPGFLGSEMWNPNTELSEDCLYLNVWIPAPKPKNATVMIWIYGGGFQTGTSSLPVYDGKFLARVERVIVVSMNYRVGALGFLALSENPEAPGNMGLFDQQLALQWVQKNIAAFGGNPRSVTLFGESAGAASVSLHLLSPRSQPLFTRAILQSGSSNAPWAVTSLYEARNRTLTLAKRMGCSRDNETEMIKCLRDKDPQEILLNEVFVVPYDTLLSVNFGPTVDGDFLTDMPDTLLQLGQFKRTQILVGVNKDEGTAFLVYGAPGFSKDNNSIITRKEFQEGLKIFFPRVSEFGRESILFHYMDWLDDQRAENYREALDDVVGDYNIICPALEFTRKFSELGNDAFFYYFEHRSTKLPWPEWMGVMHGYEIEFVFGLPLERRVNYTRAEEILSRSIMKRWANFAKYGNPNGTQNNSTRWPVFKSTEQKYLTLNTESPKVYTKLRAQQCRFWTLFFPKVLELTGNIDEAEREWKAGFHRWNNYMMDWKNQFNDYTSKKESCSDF", "assay": "Drug metabolism assessed as equine serum BuChE-mediated 3-(4-fluorophenyl)-1-(2-hydroxyphenyl)prop-2-en-1-one formation treated at 150 mmol/L with 0.25U BuChE and measured after 6 secs by HPLC analysis", "format": "ADME, cell-free", "conditions": "horse, 6 s, time 6 sec"}, "Acetylcholinesterase [4]": {"biological_target": "T2, Acetylcholinesterase (Electrophorus electricus, UniProt O42275)", "T2 sequence (O42275 whole entry)": "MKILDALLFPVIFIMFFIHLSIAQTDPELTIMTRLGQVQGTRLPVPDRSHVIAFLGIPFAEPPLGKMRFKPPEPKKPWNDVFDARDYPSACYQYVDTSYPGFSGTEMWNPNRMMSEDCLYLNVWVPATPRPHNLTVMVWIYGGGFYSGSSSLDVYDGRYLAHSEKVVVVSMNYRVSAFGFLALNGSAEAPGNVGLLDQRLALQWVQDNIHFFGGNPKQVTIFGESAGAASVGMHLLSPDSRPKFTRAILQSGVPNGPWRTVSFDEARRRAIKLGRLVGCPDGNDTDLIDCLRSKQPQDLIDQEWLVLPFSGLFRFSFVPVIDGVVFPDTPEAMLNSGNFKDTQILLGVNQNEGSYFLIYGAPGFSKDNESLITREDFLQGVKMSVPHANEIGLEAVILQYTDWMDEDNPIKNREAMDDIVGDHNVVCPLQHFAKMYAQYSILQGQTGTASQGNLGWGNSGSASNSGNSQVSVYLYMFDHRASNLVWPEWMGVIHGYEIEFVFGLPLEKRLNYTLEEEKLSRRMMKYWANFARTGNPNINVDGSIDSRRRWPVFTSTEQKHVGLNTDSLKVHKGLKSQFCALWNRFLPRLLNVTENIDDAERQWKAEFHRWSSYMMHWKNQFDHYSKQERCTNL", "assay": "Drug metabolism assessed as electric eel AChE-mediated 3-(4-fluorophenyl)-1-(2-hydroxyphenyl)prop-2-en-1-one formation treated at 150 mmol/L with 0.25U AChE and measured after 6 secs by HPLC analysis", "format": "ADME", "conditions": "6 s, time 6 sec"}, "Danio rerio [5]": {"species": "Danio rerio", "assay": "Antialzheimer activity against AlCl3-induced Alzheimer's disease zebra fish model assessed as total distance moved at 0.0049 ug/ml treated for 24 hrs and measured after 24 hrs under dark environment (reference value: 312 cm)", "format": "functional", "conditions": "dose 0.0049 µg/ml; time 48 hrs"}, "Cholinesterase [6]": {"biological_target": "T1, Cholinesterase", "assay": "Drug metabolism assessed as equine serum BuChE-mediated 3-(4-fluorophenyl)-1-(2-hydroxyphenyl)prop-2-en-1-one formation by measuring decarbamoylation rate constant with 0.25U BuChE for 9 mins by HPLC analysis", "format": "ADME, cell-free", "conditions": "horse, 0.15 h"}, "BV-2 [7]": {"tested_on": "BV-2", "assay": "Anti-inflammatory activity against LPS-stimulated mouse BV-2 cells assessed as inhibition of LPS-induced IL-6 production incubated for 24 hrs in presence of LPS", "format": "functional, cell-based", "conditions": "dose 1-9 µM"}, "Acetylcholinesterase [8]": {"biological_target": "T2, Acetylcholinesterase", "assay": "Drug metabolism assessed as electric eel AChE-mediated 3-(4-fluorophenyl)-1-(2-hydroxyphenyl)prop-2-en-1-one formation treated at 150 mmol/L with 0.001U AChE and measured after 9 mins by HPLC analysis", "format": "ADME", "conditions": "0.15 h"}, "Cholinesterase [9]": {"biological_target": "T1, Cholinesterase", "assay": "Drug metabolism assessed as equine serum BuChE-mediated 3-(4-fluorophenyl)-1-(2-hydroxyphenyl)prop-2-en-1-one formation with 0.25U BuChE for 9 mins by HPLC analysis", "format": "ADME, cell-free", "conditions": "horse, 0.15 h"}, "Danio rerio [10]": {"species": "Danio rerio", "assay": "Antialzheimer activity against AlCl3-induced Alzheimer's disease zebra fish model assessed as total distance moved at 0.0049 ug/ml treated for 24 hrs and measured after 24 hrs measured under light environment (reference value: 230 cm)", "format": "functional", "conditions": "dose 0.0049 µg/ml; time 48 hrs"}, "Danio rerio [11]": {"species": "Danio rerio", "assay": "Neuroprotective activity against AlCl3-induced Alzheimer's disease zebra fish model assessed as distance velocity at 0.0049 ug/ml treated for 24 hrs and measured after 24 hrs under alternating light dark stimuli conditions (reference value: 9 cm/min)", "format": "functional", "conditions": "dose 0.0049 µg/ml; time 48 hrs"}, "[12]": {"biological_target": "T3, Amine oxidase [flavin-containing] A (Homo sapiens, UniProt P21397)", "T3 sequence (P21397 whole entry)": "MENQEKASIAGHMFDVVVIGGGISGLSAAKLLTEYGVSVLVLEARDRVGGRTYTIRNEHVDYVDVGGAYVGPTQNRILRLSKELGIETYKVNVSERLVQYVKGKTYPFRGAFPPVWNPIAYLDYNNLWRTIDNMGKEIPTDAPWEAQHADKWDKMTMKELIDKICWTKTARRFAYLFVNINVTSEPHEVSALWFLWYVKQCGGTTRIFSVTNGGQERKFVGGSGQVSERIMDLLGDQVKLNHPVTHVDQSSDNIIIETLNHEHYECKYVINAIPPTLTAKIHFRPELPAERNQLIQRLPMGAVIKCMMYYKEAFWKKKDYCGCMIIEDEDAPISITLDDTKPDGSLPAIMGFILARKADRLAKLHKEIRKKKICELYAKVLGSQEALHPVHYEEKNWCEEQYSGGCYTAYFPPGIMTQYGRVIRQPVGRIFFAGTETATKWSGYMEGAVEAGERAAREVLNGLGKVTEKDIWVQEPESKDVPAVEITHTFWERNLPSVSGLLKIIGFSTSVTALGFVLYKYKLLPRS", "assay": "Inhibition of human recombinant MAO-A expressed in baculovirus-infected BTI cells using kynuramine as substrate incubated for 30 mins by fluorescence based analysis"}, "[13]": {"biological_target": "Cholinesterase (Equus caballus) (UniProt P81908)", "sequence (P81908 whole entry)": "as the sequence (P81908 whole entry) above", "assay": "Reversible inhibition of equine serum BuChE assessed as enzyme activity using butyrylthiocholine chloride as substrate measured after dilution to 1XIC50 by Ellman's method", "format": "cell-free", "set-up": "scale not given: the % may be the effect or the level left"}, "Danio rerio [14]": {"species": "Danio rerio", "assay": "Neuroprotective activity against AlCl3-induced Alzheimer's disease zebra fish model assessed as distance velocity at 0.078 ug/ml treated for 24 hrs and measured after 24 hrs under light environment (reference value: 7.7 cm/min)", "format": "functional", "conditions": "dose 0.078 µg/ml; time 48 hrs"}, "Danio rerio [15]": {"species": "Danio rerio", "assay": "Neuroprotective activity against AlCl3-induced Alzheimer's disease zebra fish model assessed as distance velocity at 0.078 ug/ml treated for 24 hrs and measured after 24 hrs under alternating light dark stimuli conditions (reference value: 9 cm/min)", "format": "functional", "conditions": "dose 0.078 µg/ml; time 48 hrs"}, "Cholinesterase [16]": {"biological_target": "T1, Cholinesterase", "assay": "Inhibition of equine serum BuChE using butyrylthiocholine chloride as substrate by Ellman's method", "format": "cell-free"}, "Acetylcholinesterase [17]": {"biological_target": "T2, Acetylcholinesterase", "assay": "Drug metabolism assessed as electric eel AChE-mediated 3-(4-fluorophenyl)-1-(2-hydroxyphenyl)prop-2-en-1-one formation treated with 0.25U AChE for 9 mins by HPLC analysis", "format": "ADME", "conditions": "0.15 h"}, "[18]": {"assay": "Acute toxicity in zebra fish assessed as decrease in swim bladder area at 2.5 ug/ml and measured at 120 hpf by microscopic analysis", "set-up": "species or system Danio rerio", "conditions": "zebrafish; dose 2.5 µg/ml"}, "[19]": {"assay": "Acute toxicity in zebra fish assessed as effect on liver median fluorescence intensity at 0.3125 to 1.25 ug/ml and measured at 120 hpf by microscopic analysis", "set-up": "species or system Danio rerio", "conditions": "zebrafish; dose 0.3125-1.25 µg/ml"}, "[20]": {"biological_target": "Cholinesterase (Equus caballus) (UniProt P81908)", "assay": "Reversible inhibition of equine serum BuChE assessed as enzyme activity using butyrylthiocholine chloride as substrate measured after dilution to 0.1XIC50 for 240 mins by Ellman's method", "format": "cell-free", "set-up": "scale not given: the % may be the effect or the level left"}, "Cholinesterase [21]": {"biological_target": "T1, Cholinesterase", "assay": "Drug metabolism assessed as equine serum BuChE-mediated 3-(4-fluorophenyl)-1-(2-hydroxyphenyl)prop-2-en-1-one formation treated at 150 mmol/L with 0.05U BuChE and measured after 9 mins by HPLC analysis", "format": "ADME, cell-free", "conditions": "horse, 0.15 h"}, "Danio rerio [22]": {"species": "Danio rerio", "assay": "Antialzheimer activity against AlCl3-induced Alzheimer's disease zebra fish model assessed as improvement in total distance velocity at 0.0195 ug/ml treated for 24 hrs and measured after 24 hrs", "format": "functional, organism-based", "conditions": "dose 0.0195 µg/ml, time 48.0 hrs"}, "Danio rerio [23]": {"species": "Danio rerio", "assay": "Neuroprotective activity against AlCl3-induced Alzheimer's disease zebra fish model assessed as distance velocity at 0.0049 ug/ml treated for 24 hrs and measured after 24 hrs under dark environment (reference value: 10.4 cm/min)", "format": "functional", "conditions": "dose 0.0049 µg/ml; time 48 hrs"}, "BV-2 [24]": {"tested_on": "BV-2", "assay": "Anti-inflammatory activity against LPS-stimulated mouse BV-2 cells assessed as inhibition of LPS-induced IL-1 beta production incubated for 24 hrs in presence of LPS", "format": "functional, cell-based", "conditions": "dose 1-9 µM"}, "Acetylcholinesterase [25]": {"biological_target": "T2, Acetylcholinesterase", "assay": "Drug metabolism assessed as electric eel AChE-mediated 3-(4-fluorophenyl)-1-(2-hydroxyphenyl)prop-2-en-1-one formation treated at 150 mmol/L with 0.5U AChE and measured after 9 mins by HPLC analysis", "format": "ADME", "conditions": "0.15 h"}, "[26]": {"assay": "Acute toxicity in zebra fish assessed as proportion of dead zebrafish at 5 to 10 ug/ml and measured every 24 hrs upto 120 hours post fertilization", "set-up": "species or system Danio rerio", "conditions": "in vivo, at 5 to 10 µg/mL, dose 5-10 µg/ml, read-out: Activity"}}, "note": "The source made the active and inactive calls. The calls are words filed in the database; no cut-off is given here.", "data": [{"molecule": "CCN(C)C(=O)Oc1ccccc1C(=O)/C=C/c1ccc(F)cc1", "values": [{"measurement": "Activity", "setting": "[1]", "value": 2.5, "unit": "µg/mL"}, {"measurement": "Activity", "setting": "BV-2 [2]", "value": "Non-Toxic"}, {"measurement": "Drug metabolism", "setting": "Cholinesterase [3]", "value": 1.51, "unit": "mmol/L"}, {"measurement": "Drug metabolism", "setting": "Acetylcholinesterase [4]", "value": 1.46, "unit": "mmol/L"}, {"measurement": "Activity", "setting": "Danio rerio [5]", "value": 391, "unit": "cm"}, {"measurement": "K", "setting": "Cholinesterase [6]", "value": 4.05, "unit": "M⁻¹ s⁻¹"}, {"measurement": "Activity", "setting": "BV-2 [7]", "value": "Dose-Dependent Effect"}, {"measurement": "Drug metabolism", "setting": "Acetylcholinesterase [8]", "value": 5.56, "unit": "mmol/L"}, {"measurement": "Km", "setting": "Cholinesterase [9]", "value": 113, "unit": "µM"}, {"measurement": "Activity", "setting": "Danio rerio [10]", "value": 373, "unit": "cm"}, {"measurement": "Activity", "setting": "Danio rerio [11]", "value": 12.7, "unit": "cm/min"}, {"measurement": "IC50", "setting": "[12]", "value": 38.2, "unit": "µM"}, {"measurement": "Activity", "setting": "[13]", "value": 51.7, "unit": "%"}, {"measurement": "Activity", "setting": "Danio rerio [14]", "value": 7.5, "unit": "cm/min"}, {"measurement": "Activity", "setting": "Danio rerio [15]", "value": 12.7, "unit": "cm/min"}, {"measurement": "IC50", "setting": "Cholinesterase [16]", "value": 12.4, "unit": "µM"}, {"measurement": "Km", "setting": "Acetylcholinesterase [17]", "value": 85.3, "unit": "µM"}, {"measurement": "Activity", "setting": "[18]", "value": "Toxic"}, {"measurement": "Activity", "setting": "[19]", "value": "Non-Toxic"}, {"measurement": "Activity", "setting": "[20]", "value": 93.3, "unit": "%"}, {"measurement": "Drug metabolism", "setting": "Cholinesterase [21]", "value": 14.17, "unit": "mmol/L"}, {"measurement": "Activity", "setting": "Danio rerio [22]", "value": "Active"}, {"measurement": "Activity", "setting": "Danio rerio [23]", "value": 13, "unit": "cm/min"}, {"measurement": "Activity", "setting": "BV-2 [24]", "value": "Dose-Dependent Effect"}, {"measurement": "Drug metabolism", "setting": "Acetylcholinesterase [25]", "value": 24.87, "unit": "mmol/L"}, {"measurement": "mortality", "setting": "[26]", "value": 100, "unit": "%"}]}]}
